The compounds below were run on A375 melanoma cells (B-Raf V600E mutation) (assay: A375 (A375_P-ERK) cell activity / cell growth inhibition assay). Details: Homo sapiens, A-375; A375 cells (text: A375_P-ERK).
Assay type: cell-based, human
Experimental: Compounds are assessed in a variety of cell based assays. For example human cell lines with B-RafV600E mutation (A375 melanoma, SKMEL3 melanoma, and COLO205 colon adenocarcinoma), as well as tumorigenic cell lines with wild-type B-RAF (SW620 colon adenocarcinoma) or with Ras mutations (SKMEL2 melanoma and IPC298 melanoma).
On day 1, cells are counted, then centrifuged in a conical tube for 5 minutes at 1000 rpm.
On day 2, compound at a maximum concentration of 5 mM is serially diluted 1:3 (e.g. 10 μL with 30 μL dimethyl sulfoxide) for a total of 8 point titration with DMSO as a control. A 1 μL aliquot of each dilution point and control is added to 249 μL growth media and 50 μL is added to a well containing cells, providing 10 μM compound at the maximum concentration point. The cells are incubated for 3 days at 37° C. in 5% CO2.
ATPlite is added 25 μL to each well, shake for 2 minutes, and the cells are incubated at room temperature for 10 minutes, then luminescence is read on Safire reader. The measured luminescence correlates directly with cell number, such that the reading as a function of compound concentration is used to determine the IC50 value.

Structure (SMILES)	IC50 [µM]
CCN(C)S(=O)(=O)Nc1cccc(C(=O)c2c[nH]c3ncc(Cl)cc23)c1F [P-0018, 5-chloro-3-[3-[[ethyl(methyl)sulfamoyl]amino]-2-fluoro-benzoyl]-1H-pyrrolo[2,3-b]pyridine]	< 1
CCN(C)S(=O)(=O)Nc1cccc(C(=O)c2c[nH]c3ncc(-c4ccc(C#N)nc4)cc23)c1F [P-0102, 5-(6-cyano-3-pyridyl)-3-[3-[[ethyl(methyl)sulfamoyl]amino]-2-fluoro-benzoyl]-1H-pyrrolo[2,3-b]pyridine]	< 1
Cn1cc(-c2cnc3[nH]cc(C(=O)c4cccc(NS(=O)(=O)CC5CC5)c4F)c3c2)cn1 [P-0042, 1-cyclopropyl-N-[2-fluoro-3-[5-(1-methylpyrazol-4-yl)-1H-pyrrolo[2,3-b]pyridine-3-carbonyl]phenyl]methanesulfonamide]	< 1
CCN(C)S(=O)(=O)Nc1ccc(F)c(C(=O)c2c[nH]c3ncc(-c4ccc(-c5nnc(NC)s5)cc4)cc23)c1F [P-0305, 2-[4-[3-[3-[[ethyl(methyl)sulfamoyl]amino]-2,6-difluoro-benzoyl]-1H-pyrrolo[2,3-b]pyridin-5-yl]phenyl]-5-(methylamino)-1,3,4-thiadiazole]	< 1
CCN(C)S(=O)(=O)Nc1ccc(F)c(C(=O)c2c[nH]c3ncc(-c4ccc5c(c4)NC(=O)C5)cc23)c1F [P-0309, 3-[3-[[ethyl(methyl)sulfamoyl]amino]-2,6-difluoro-benzoyl]-5-(2-oxoindolin-6-yl)-1H-pyrrolo[2,3-b]pyridine]	< 1
CCC(C)S(=O)(=O)Nc1cccc(C(=O)c2c[nH]c3ncc(-c4cnc(N5CCOCC5)nc4)cc23)c1F (centres unmarked) [P-0236, N-[2-fluoro-3-[5-(2-morpholinopyrimidin-5-yl)-1H-pyrrolo[2,3-b]pyridine-3-carbonyl]phenyl]butane-2-sulfonamide]	< 1
CCCNS(=O)(=O)Nc1cccc(C(=O)c2c[nH]c3ncc(-c4cnn(C)c4)cc23)c1F [P-0242, [2-fluoro-3-(propylsulfamoylamino)phenyl]-[5-(1-methylpyrazol-4-yl)-1H-pyrrolo[2,3-b]pyridin-3-yl]methanone]	> 1
CCN(C)S(=O)(=O)Nc1ccc(F)c(C(=O)c2c[nH]c3ncc(-c4ccc(N5CCCC5)cc4)cc23)c1F [P-0303, 3-[3-[[ethyl(methyl)sulfamoyl]amino]-2,6-difluoro-benzoyl]-5-(4-pyrrolidin-1-ylphenyl)-1H-pyrrolo[2,3-b]pyridine]	> 1
CCC(C)S(=O)(=O)Nc1ccc(F)c(C(=O)c2c[nH]c3ncc(-c4ccc(Cl)cc4)cc23)c1F (centres unmarked) [P-0337, N-[3-[5-(4-chlorophenyl)-1H-pyrrolo[2,3-b]pyridine-3-carbonyl]-2,4-difluoro-phenyl]butane-2-sulfonamide]	> 1
CCCN(C)S(=O)(=O)Nc1cccc(C(=O)c2c[nH]c3ncc(-c4ccc(C5CC5)nc4)cc23)c1F [P-0114, 5-(6-cyclopropyl-3-pyridyl)-3-[2-fluoro-3-[[methyl(propyl)sulfamoyl]amino]benzoyl]-1H-pyrrolo[2,3-b]pyridine]	< 1
CCN(C)S(=O)(=O)Nc1ccc(F)c(C(=O)c2c[nH]c3ncc(-c4ccc(C5(C#N)CC5)cc4)cc23)c1F [P-0239, 5-[4-(1-cyanocyclopropyl)phenyl]-3-[3-[[ethyl(methyl)sulfamoyl]amino]-2,6-difluoro-benzoyl]-1H-pyrrolo[2,3-b]pyridine]	< 1
N#Cc1cncc(-c2cnc3[nH]cc(C(=O)c4cccc(NS(=O)(=O)N5CCCC5)c4F)c3c2)c1 [P-0093, N-[3-[5-(5-cyano-3-pyridyl)-1H-pyrrolo[2,3-b]pyridine-3-carbonyl]-2-fluoro-phenyl]pyrrolidine-1-sulfonamide]	< 1
CCN(C)S(=O)(=O)Nc1cccc(C(=O)c2c[nH]c3ncc(-c4ccc(C)nc4)cc23)c1F [P-0033]	< 1
CCN(C)S(=O)(=O)Nc1ccc(F)c(C(=O)c2c[nH]c3ncc(-c4cccc(C5(C#N)CC5)c4)cc23)c1F [P-0276, 5-[3-(1-cyanocyclopropyl)phenyl]-3-[3-[[ethyl(methyl)sulfamoyl]amino]-2,6-difluoro-benzoyl]-1H-pyrrolo[2,3-b]pyridine]	< 1
CCN(CC)c1ccc(-c2cnc3[nH]cc(C(=O)c4c(F)ccc(NS(=O)(=O)N(C)CC)c4F)c3c2)cc1 [P-0308, 5-[4-(diethylamino)phenyl]-3-[3-[[ethyl(methyl)sulfamoyl]amino]-2,6-difluoro-benzoyl]-1H-pyrrolo[2,3-b]pyridine]	< 1
CN1CCN(c2cccc(-c3cnc4[nH]cc(C(=O)c5cccc(NS(=O)(=O)N6CCCC6)c5F)c4c3)n2)CC1 [P-0324, N-[2-fluoro-3-[5-[6-(4-methylpiperazin-1-yl)-2-pyridyl]-1H-pyrrolo[2,3-b]pyridine-3-carbonyl]phenyl]pyrrolidine-1-sulfonamide]	< 1

Structure (SMILES)	IC50 [µM]
CCN(C)S(=O)(=O)Nc1ccc(F)c(C(=O)c2c[nH]c3ncc(Cl)cc23)c1F [P-0012, 5-chloro-3-[3-[[ethyl(methyl)sulfamoyl]amino]-2,6-difluoro-benzoyl]-1H-pyrrolo[2,3-b]pyridine]	< 1
CCN(C)S(=O)(=O)Nc1cccc(C(=O)c2c[nH]c3ncc(-c4ccc(N(C)C)nc4)cc23)c1F [P-0076, 5-[6-(dimethylamino)-3-pyridyl]-3-[3-[[ethyl(methyl)sulfamoyl]amino]-2-fluoro-benzoyl]-1H-pyrrolo[2,3-b]pyridine]	< 1
CCN(C)S(=O)(=O)Nc1cccc(C(=O)c2c[nH]c3ncc(Br)cc23)c1F [P-0038, 5-bromo-3-[3-[[ethyl(methyl)sulfamoyl]amino]-2-fluoro-benzoyl]-1H-pyrrolo[2,3-b]pyridine]	< 1
CCN(C)S(=O)(=O)Nc1cccc(C(=O)c2c[nH]c3ncc(-c4ccc(Cl)cc4)cc23)c1F [P-0019]	< 1
CCN(C)S(=O)(=O)Nc1ccc(F)c(C(=O)c2c[nH]c3ncc(-c4ccc(C(F)(F)F)cc4)cc23)c1F [P-0301, 3-[3-[[ethyl(methyl)sulfamoyl]amino]-2,6-difluoro-benzoyl]-5-[4-(trifluoromethyl)phenyl]-1H-pyrrolo[2,3-b]pyridine]	< 1
Cc1ccnc(-c2cnc3[nH]cc(C(=O)c4cccc(NS(=O)(=O)N5CCCC5)c4F)c3c2)n1 [P-0326, N-[2-fluoro-3-[5-(4-methylpyrimidin-2-yl)-1H-pyrrolo[2,3-b]pyridine-3-carbonyl]phenyl]pyrrolidine-1-sulfonamide]	> 1
O=C(c1cccc(NS(=O)(=O)N2CCCC2)c1F)c1c[nH]c2ncc(-c3cnc(N4CCOCC4)nc3)cc12 [P-0235, N-[2-fluoro-3-[5-(2-morpholinopyrimidin-5-yl)-1H-pyrrolo[2,3-b]pyridine-3-carbonyl]phenyl]pyrrolidine-1-sulfonamide]	< 1
CCN(C)S(=O)(=O)Nc1cccc(C(=O)c2c[nH]c3ncc(-c4cnc(C5CC5)nc4)cc23)c1F [P-0058]	< 1
O=C(c1c(F)ccc(NS(=O)(=O)N2CC[C@H](F)C2)c1F)c1c[nH]c2ncc(-c3cnc(C4CC4)nc3)cc12 [P-0289, (3S)—N-[3-[5-(2-cyclopropylpyrimidin-5-yl)-1H-pyrrolo[2,3-b]pyridine-3-carbonyl]-2,4-difluoro-phenyl]-3-fluoro-pyrrolidine-1-sulfonamide]	< 1
CCNS(=O)(=O)Nc1ccc(F)c(C(=O)c2c[nH]c3ncc(-c4cnc(C5CC5)nc4)cc23)c1F [P-0335, [5-(2-cyclopropylpyrimidin-5-yl)-1H-pyrrolo[2,3-b]pyridin-3-yl]-[3-(ethylsulfamoylamino)-2,6-difluoro-phenyl]methanone]	< 1
CCN(C)S(=O)(=O)Nc1ccc(F)c(C(=O)c2c[nH]c3ncc(-c4ccc(OC)nn4)cc23)c1F [P-0317, 3-[3-[[ethyl(methyl)sulfamoyl]amino]-2,6-difluoro-benzoyl]-5-(6-methoxypyridazin-3-yl)-1H-pyrrolo[2,3-b]pyridine]	< 1
CN(C)S(=O)(=O)Nc1cccc(C(=O)c2c[nH]c3ncc(-c4ccc(C5(C#N)CC5)cc4)cc23)c1F [P-0055, 5-[4-(1-cyanocyclopropyl)phenyl]-3-[3-(dimethylsulfamoylamino)-2-fluoro-benzoyl]-1H-pyrrolo[2,3-b]pyridine]	< 1
CCN(C)S(=O)(=O)Nc1cccc(C(=O)c2c[nH]c3ncc(-c4ccc(F)cc4)cc23)c1F [P-0034]	< 1
O=C(c1c(F)ccc(NS(=O)(=O)N2CC[C@@H](F)C2)c1F)c1c[nH]c2ncc(-c3cnc(C4CC4)nc3)cc12 [P-0338, (3R)—N-[3-[5-(2-cyclopropylpyrimidin-5-yl)-1H-pyrrolo[2,3-b]pyridine-3-carbonyl]-2,4-difluoro-phenyl]-3-fluoro-pyrrolidine-1-sulfonamide]	< 1
Cc1cnc2[nH]cc(C(=O)c3cccc(NS(=O)(=O)N4CCCC4)c3F)c2c1 [P-0023, N-[2-fluoro-3-(5-methyl-1H-pyrrolo[2,3-b]pyridine-3-carbonyl)phenyl]pyrrolidine-1-sulfonamide]	< 1
CCN(C)S(=O)(=O)Nc1ccc(F)c(C(=O)c2c[nH]c3ncc(-c4ccc(-c5nnc(C)o5)cc4)cc23)c1F [P-0304, 2-[4-[3-[3-[[ethyl(methyl)sulfamoyl]amino]-2,6-difluoro-benzoyl]-1H-pyrrolo[2,3-b]pyridin-5-yl]phenyl]-5-methyl-1,3,4-oxadiazole]	< 1

From patent US11337976B2 (Plexxikon Inc., priority 2011, dated 2022)
